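Five compound concentrations were applied to cells in 96-well plates for 48 hours; endpoints were derived by simple linear interpolation of the resulting dose-response curve. The concentration for 50% growth inhibition is given as GI50. TGI: total growth inhibition.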

Among the test systems are OVCAR-8 ovarian; HCC-2998 colon; MCF7 breast; T-47D breast; SK-OV-3 ovarian; KM12 colon; COLO 205 colon; UO-31 renal; NCI-H522 lung; RPMI-8226 leukemia.
Assay in all cases: NCI-60 cell line screen, 48 h

In the case of `FC(F)(F)c1[nH]ncc1-c1nc2ccc3[nH]ncc3c2c2c1CCCC2`, the GI50 in the assay on OVCAR-8 ovarian was 2.63 µM; with HCC-2998 colon, 1.58 µM; with MCF7 breast, 1670 nM; in the assay with T-47D breast, 2.03 µM; in the assay with SK-OV-3 ovarian, 1.79 µM; with KM12 colon, 1.19 µM. Also, the GI50 in the assay with COLO 205 colon was 1540 nM; in the assay on UO-31 renal it was 1300 nM; in the assay on NCI-H522 lung, 1240 nM; with RPMI-8226 leukemia, 1420 nM. The TGI in the assay with OVCAR-8 ovarian is 11.9 µM; with HCC-2998 colon, 3.89 µM; with MCF7 breast it was 10.1 µM; with T-47D breast it was 9.39 µM; in the assay with SK-OV-3 ovarian it was 5.83 µM; with KM12 colon it was 11.8 µM. Besides, the TGI in the assay with COLO 205 colon turned out to be 4.08 µM; with UO-31 renal, 5 µM; in the assay with NCI-H522 lung, 4.77 µM; in the assay with RPMI-8226 leukemia, 6.66 µM.

With `CNCCCn1c2c(c3ccc(F)cc3c1=O)C(=O)c1cc(OC)cnc1-2`, the GI50 is 0.193 µM in the assay with OVCAR-8 ovarian; 1.15 µM with HCC-2998 colon; 34.4 nM with MCF7 breast; 0.16 µM with T-47D breast; 0.228 µM in the assay with SK-OV-3 ovarian; 0.242 µM in the assay with KM12 colon. Further, the GI50 with COLO 205 colon was 72.2 nM; in the assay with UO-31 renal, 130 nM; with NCI-H522 lung, 56.9 nM; in the assay with RPMI-8226 leukemia it was 203 nM. In addition, the TGI in the assay on OVCAR-8 ovarian was found to be 1.12 µM; with HCC-2998 colon it was 4.17 µM; in the assay on MCF7 breast, 3.43 µM; with T-47D breast it was 0.704 µM; in the assay on SK-OV-3 ovarian it was 0.674 µM; in the assay on KM12 colon, 1.48 µM. Moreover, the TGI in the assay on COLO 205 colon came out at 1.14 µM; in the assay with UO-31 renal it was 0.809 µM; in the assay on NCI-H522 lung, 1.08 µM; in the assay with RPMI-8226 leukemia, 0.912 µM.

For `O=C(Nc1cccc(-n2cc(-c3ccncc3)c(-c3ccc(O)c(Cl)c3)n2)c1)c1ccc(Cl)c(Cl)c1`, the GI50 in the assay with OVCAR-8 ovarian is 5.06 µM; in the assay with HCC-2998 colon, 40.6 µM; with MCF7 breast, 4080 nM; in the assay with T-47D breast it was 5.36 µM; in the assay with SK-OV-3 ovarian it was 42.3 µM; in the assay on KM12 colon, 5.44 µM. Also, the GI50 is 62200 nM in the assay on COLO 205 colon, 4500 nM in the assay on UO-31 renal, 4130 nM in the assay on NCI-H522 lung and 3460 nM in the assay on RPMI-8226 leukemia. The TGI in the assay with OVCAR-8 ovarian, with HCC-2998 colon, with MCF7 breast, with T-47D breast, in the assay with SK-OV-3 ovarian and with KM12 colon was greater than 100 µM in each case. For the same molecule, the TGI is greater than 100 µM in the assay on COLO 205 colon, greater than 100 µM with UO-31 renal, 74.4 µM in the assay with NCI-H522 lung and greater than 100 µM in the assay with RPMI-8226 leukemia.

Consider `Nc1cc2nc3ccccc3oc-2cc1=O`, for which the GI50 with OVCAR-8 ovarian was 19.7 µM; with HCC-2998 colon, 4.34 µM; with MCF7 breast, 1350 nM; in the assay with T-47D breast, 14.9 µM; in the assay with SK-OV-3 ovarian, 19.7 µM; in the assay with KM12 colon it was 3.71 µM. Moreover, the GI50 was 1820 nM with COLO 205 colon, 1770 nM in the assay with UO-31 renal, 3450 nM with NCI-H522 lung and 951 nM with RPMI-8226 leukemia. The TGI in the assay on OVCAR-8 ovarian is greater than 100 µM; with HCC-2998 colon, 17.4 µM; in the assay on MCF7 breast it was 3.33 µM; with T-47D breast it was greater than 100 µM; in the assay on SK-OV-3 ovarian, greater than 61.4 µM; in the assay on KM12 colon it was 43.5 µM. Moreover, the TGI in the assay on COLO 205 colon is 3.42 µM; in the assay on UO-31 renal, 10.4 µM; with NCI-H522 lung, 10.1 µM; in the assay with RPMI-8226 leukemia, greater than 20.4 µM.

For `O=Nc1c(O)c2ccccc2c2ccccc12`, the GI50 is 0.653 µM in the assay with OVCAR-8 ovarian; 1.91 µM in the assay with HCC-2998 colon; 1460 nM with MCF7 breast; 1.32 µM with T-47D breast; 2.48 µM in the assay on SK-OV-3 ovarian; 1.76 µM with KM12 colon. Besides, the GI50 in the assay with COLO 205 colon was 1920 nM; in the assay on UO-31 renal, 1350 nM; in the assay on NCI-H522 lung, 1260 nM; with RPMI-8226 leukemia, 1200 nM. In addition, the TGI in the assay with OVCAR-8 ovarian was determined as 3.88 µM; in the assay on HCC-2998 colon, 3.7 µM; with MCF7 breast, 4.11 µM; in the assay with T-47D breast, 3.57 µM; in the assay on SK-OV-3 ovarian, 6.27 µM; in the assay on KM12 colon, 3.34 µM. Also, the TGI in the assay with COLO 205 colon is 3.46 µM; in the assay with UO-31 renal, 3.3 µM; in the assay with NCI-H522 lung it was 3.58 µM; in the assay with RPMI-8226 leukemia, greater than 21.9 µM.

On to `CN(C)CCOc1ccc(-c2cc(-c3ccc4c(c3)CC/C4=N\O)c(-c3ccncc3)o2)cc1`, for which the GI50 in the assay with OVCAR-8 ovarian is 3.97 µM; in the assay on HCC-2998 colon it was 5.5 µM; in the assay with MCF7 breast it was 5020 nM; in the assay with T-47D breast, 4.66 µM; with SK-OV-3 ovarian, 4.08 µM; in the assay with KM12 colon, 3.57 µM. Also, the GI50 in the assay with COLO 205 colon is 112 nM; in the assay on UO-31 renal, 5210 nM; with NCI-H522 lung, 3730 nM; in the assay with RPMI-8226 leukemia, 4280 nM. For the same molecule, the TGI in the assay on OVCAR-8 ovarian came out at 9 µM; in the assay with HCC-2998 colon, 9.5 µM; in the assay with MCF7 breast, 10.1 µM; with T-47D breast, 9.62 µM; in the assay with SK-OV-3 ovarian, 7.51 µM; with KM12 colon it was 7.28 µM. For the same molecule, the TGI in the assay on COLO 205 colon is 4.35 µM; with UO-31 renal, 9.47 µM; in the assay on NCI-H522 lung, 8.02 µM; in the assay with RPMI-8226 leukemia it was 10.7 µM.

As to `CC(=O)c1cccc(NC(=O)c2ccc(NC3=C(Cl)C(=O)N(Cc4ccccc4)C3=O)cc2)c1`, the GI50 with OVCAR-8 ovarian is 14.3 µM; with HCC-2998 colon, 23.1 µM; with MCF7 breast it was 9340 nM; in the assay on T-47D breast, 25.1 µM; in the assay on SK-OV-3 ovarian, greater than 100 µM; with KM12 colon it was 20 µM. For the same molecule, the GI50 is 29200 nM in the assay with COLO 205 colon, 1520 nM in the assay on UO-31 renal, 2450 nM in the assay on NCI-H522 lung and 3310 nM in the assay with RPMI-8226 leukemia. Moreover, the TGI in the assay with OVCAR-8 ovarian is 50.7 µM; in the assay with HCC-2998 colon it was 41 µM; in the assay on MCF7 breast, greater than 100 µM; in the assay on T-47D breast, greater than 100 µM; with SK-OV-3 ovarian it was greater than 100 µM; in the assay with KM12 colon, 43 µM. In addition, the TGI in the assay on COLO 205 colon is greater than 100 µM; in the assay on UO-31 renal, 3.12 µM; with NCI-H522 lung, 19.4 µM; in the assay on RPMI-8226 leukemia, 15.1 µM.

For the origin of these results see PubChem BioAssay (NCI).
